Test results: patent US9561228B2 (Celgene Avilomics Research, Inc., priority 2013, dated 2017)

Tests used:
[1] = tested on: ERK1/2 phosphorylation of p90RSK in HT29 cells; assay: pRSK MSD Assay in HT29 cells; format: cell-based; details: Homo sapiens, HT-29, read-out: ERK1/ERK2 PRSK MSD HT29 EC50
Procedure, shortened: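 Serum-starved HT29 cells (0.1% FBS overnight) treated with test compound for 120 min at 37° C, then lysed with protease and phosphatase inhibitors. Phospho-p90RSK quantified by MSD sandwich immunoassay: RSK capture antibody, phospho-RSK detection antibody plus Sulfo-tagged antibody, electrochemiluminescence read.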

[2] = tested on: ERK1/2 phosphorylation of p90RSK in A375 cells; assay: Detection of total and phosphor-RSK by MSD ELISA (A375); format: cell-based; details: Homo sapiens, A-375, read-out: ERK1/ERK2 PRSK A375 EC50
Procedure, shortened: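 A375 cells serum-starved overnight in DMEM/0.1% FBS, then treated 2 h at 37° C with compound (1000× DMSO dilutions into medium). Lysates captured on RSK antibody-coated MSD plates; phospho-RSK (Ser380) and total RSK detected with SulfoTag secondary antibodies by electrochemiluminescence.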

C=CC(=O)Nc1cc(C)ccc1Nc1nc(Nc2cc(OC)nc(N(C)CCOC)c2)ncc1C(F)(F)F [Compound I-336, N-(2-((2-((2-methoxy-6-((2-methoxyethyl)(methyl)amino)pyridin-4-yl)amino)-5-(trifluoromethyl)pyrimidin-4-yl)amino)-5-methylphenyl)acrylamide]
EC50 [1]: < 100 nM
EC50 [2]: 101 to 500 nM

C=CC(=O)Nc1cc(C)ccc1Nc1nc(Nc2cc(NC3CC3)nc(OC)c2)ncc1C(F)(F)F [Compound I-337, N-(2-((2-((2-(cyclopropylamino)-6-methoxypyridin-4-yl)amino)-5-(trifluoromethyl)pyrimidin-4-yl)amino)-5-methylphenyl)acrylamide]
EC50 [1]: < 100 nM
EC50 [2]: < 100 nM

C=CC(=O)Nc1ccccc1Nc1nc(Nc2cc(OC)cc(OC)c2)ncc1C(F)(F)F [Compound I-338, N-(2-((2-((3,5-dimethoxyphenyl)amino)-5-(trifluoromethyl)pyrimidin-4-yl)amino)phenyl)acrylamide]
EC50 [1]: < 100 nM
EC50 [2]: < 100 nM

C=CC(=O)Nc1ccccc1Nc1nc(Nc2cc(OC)ccc2C)ncc1C(F)(F)F [Compound I-340, N-(2-((2-((5-methoxy-2-methylphenyl)amino)-5-(trifluoromethyl)pyrimidin-4-yl)amino)phenyl)acrylamide]
EC50 [1]: < 100 nM
EC50 [2]: < 100 nM

C=CC(=O)Nc1cc(C)ccc1Nc1nc(Nc2cc(OC)ccc2C)ncc1C(F)(F)F [Compound I-341, N-(2-((2-((5-methoxy-2-methylphenyl)amino)-5-(trifluoromethyl)pyrimidin-4-yl)amino)-5-methylphenyl)acrylamide]
EC50 [1]: 101 to 500 nM
EC50 [2]: > 1000 nM

C=CC(=O)Nc1cc(C)ccc1Nc1nc(Nc2cc(OC)nc(N(C)C3CC3)c2)ncc1C(F)(F)F [Compound I-342, N-(2-((2-((2-(cyclopropyl(methyl)amino)-6-methoxypyridin-4-yl)amino)-5-(trifluoromethyl)pyrimidin-4-yl)amino)-5-methylphenyl)acrylamide]
EC50 [1]: 101 to 500 nM
EC50 [2]: 101 to 500 nM
